Assay results: PMC9317628, “Secondary Metabolites in the Dendrobium heterocarpum Methanolic Extract and Their Impacts on Viability and Lipid Storage of 3T3-L1 Pre-Adipocytes” (Nutrients, 2022)

Legend:
[1] = MTT cytotoxicity assay (cell viability); type: cell-based, mouse; settings: mouse, 3T3-L1 pre-adipocytes, 20 µM, relative to vehicle control, read-out: percentage of cell viability
Experimental: (§1) The mouse embryonic 3T3-L1 pre-adipocytes purchased from the American Type Culture Collection (ATCC, Manassas, VA, USA) were cultured at 37 °C with a 5% CO2 stream in a complete Dulbecco’s modified Eagle medium (DMEM) (Gibco, Gaithersburg, MA, USA) that contained 10% fetal bovine serum (FBS; Gibco, Gaithersburg, MA, USA), 1000 units mL^−1 of penicillin/streptomycin (Gibco, Gaithersburg, MA, USA), and 2 mM of L-glutamine (Gibco, Gaithersburg, MA, USA). For adipocyte differentiation, 3T3-L1 cells at 100% confluent were incubated at 37 °C with a 5% CO2 stream for two days in a differentiation medium made of the complete DMEM plus 0.5 mM isobutyl methylxanthine (IBMX) (Sigma Aldrich, St. Louis, MO, USA), 1 µM of dexamethasone (Sigma Aldrich, St. Louis, MO, USA), and 5 µg mL^−1 of insulin (Sigma Aldrich, St. Louis, MO, USA). Then, the medium was replaced with an insulin medium made of the complete DMEM plus 5 µg mL^−1 of insulin, and cells were continuously incubated under the same conditions for another two days. The medium was replaced with the complete DMEM every two days to maintain adipocyte development. Cellular lipid droplets developed along the differentiation program could be observed under a light microscope (Nikon Ts2, Tokyo, Japan). The cytotoxic effect of elucidated compounds from D. heterocarpum on 3T3-L1 cell viability was evaluated using 3-(4,5-dimethylthiazol-2-yl)-2,5-diphenyl tetrazolium bromide (MTT) (Sigma Aldrich, St. Louis, MO, USA) assay. 3T3-L1 cells were seeded in 96-well plates at a density of 2 × 10^3 cells/well and incubated at 37 °C with a 5% CO2 stream until reaching 100% confluent. Cells were then exposed to varying concentrations (5, 10, and 20 µM) of the tested compounds in the complete DMEM for 48 h. Before testing, every tested compound resuspended in absolute dimethyl sulfoxide (DMSO) (Sigma Aldrich, St. Louis, MO, USA) was prepared by dilution using the complete DMEM. The concentration of DMSO in each treatment was limited to <0.5% (v/v). DMSO at 0.5% (v/v) and 20 µM of oxyresveratrol (a known compound with the ability to suppress adipocyte differentiation) were included in the tests as untreated vehicle and positive controls, respectively. After exposure for 48 h, the medium was removed, and the MTT solution (0.45 mg mL^−1), prepared by dissolving in phosphate-buffered saline (PBS), was added. The assay was incubated at 37 °C with a 5% CO2 stream for 3 h. Then, the MTT solution was replaced with absolute DMSO to dissolve the purple formazan crystal that formed, which was further measured for absorbance at a 570 nm wavelength using a microplate reader (Anthros, Durham, NC, USA). The relative absorbance value between treated cells to vehicle control cells was presented as the percentage of cell viability. Non-cytotoxic concentrations of a tested compound were defined based on no significant difference in the percentages of cell viability derived from the treatments and the vehicle control.

3T3-L1 pre-adipocytes = assay: MTT cytotoxicity assay (cell viability); type: cell-based, mouse; settings: 48 h; for cytotoxic effect (cell viability vs untreated vehicle control): 5 µM (lowest tested concentration); for non-cytotoxic concentrations: no significant difference from vehicle control
Experimental: as §1

pancreatic lipase = settings: cited from earlier work
3T3-L1 cells [2] = assay: Oil Red O staining, cellular lipid content in differentiating cells; type: cell-based, mouse; settings: for effect on cellular lipid storage (percentage of Oil Red O-stained cells): 5 µM, 48 h exposure, staining on day 8, vs untreated vehicle control; for IC50: Mus musculus, 3T3-L1, based on percentage of Oil Red O-stained, read-out: IC50 to suppress cellular lipid accumulation
Experimental: The mouse embryonic 3T3-L1 pre-adipocytes purchased from the American Type Culture Collection (ATCC, Manassas, VA, USA) were cultured at 37 °C with a 5% CO2 stream in a complete Dulbecco’s modified Eagle medium (DMEM) (Gibco, Gaithersburg, MA, USA) that contained 10% fetal bovine serum (FBS; Gibco, Gaithersburg, MA, USA), 1000 units mL^−1 of penicillin/streptomycin (Gibco, Gaithersburg, MA, USA), and 2 mM of L-glutamine (Gibco, Gaithersburg, MA, USA). For adipocyte differentiation, 3T3-L1 cells at 100% confluent were incubated at 37 °C with a 5% CO2 stream for two days in a differentiation medium made of the complete DMEM plus 0.5 mM isobutyl methylxanthine (IBMX) (Sigma Aldrich, St. Louis, MO, USA), 1 µM of dexamethasone (Sigma Aldrich, St. Louis, MO, USA), and 5 µg mL^−1 of insulin (Sigma Aldrich, St. Louis, MO, USA). Then, the medium was replaced with an insulin medium made of the complete DMEM plus 5 µg mL^−1 of insulin, and cells were continuously incubated under the same conditions for another two days. The medium was replaced with the complete DMEM every two days to maintain adipocyte development. Cellular lipid droplets developed along the differentiation program could be observed under a light microscope (Nikon Ts2, Tokyo, Japan). Oil Red O staining was performed to determine the content of lipid droplets in differentiating 3T3-L1 cells. The adipocyte differentiation program as described previously was established, and cells were exposed to each tested compound at 5 µM for 48 h after obtaining 100% confluence. Cells exposed to 0.5% (v/v) DMSO and 20 µM of oxyresveratrol served as untreated vehicle and positive controls, respectively. Tested compounds were diluted in the differentiation medium before testing, in which the concentrations of DMSO were restricted to be lower than 0.5% (v/v). After the treatments, differentiating 3T3-L1 cells on day 8 of the differentiation program were fixed with 10% formalin and incubated with the Oil Red O staining solution (Sigma Aldrich, St. Louis, MO, USA) at an ambient temperature for 1 h. Cells were then washed thrice with distilled water and 60% (v/v) isopropanol (Sigma Aldrich, St. Louis, MO, USA) to remove the excess dye. Oil Red O-stained 3T3-L1 cells were observed using a light microscope (Nikon Ts2, Tokyo, Japan). The cellular Oil Red O content was extracted using absolute isopropanol and measured for absorbance at a 510 nm wavelength by the microplate reader. The percentage of Oil Red O-stained cells was calculated after normalization with the total cellular protein content determined by a BCA protein assay kit (Thermo Scientific, Rockford, CA, USA).

α-glucosidase = settings: cited from earlier work
[3] = system: HeLa cervical cancer cell line; parameters: method as in doi:10.1177/1934578X20908678; settings: cited from earlier work
PPARγ = assay: Western blot, PPARγ expression at early adipocyte differentiation; type: cell-based, mouse; settings: 10 µM, 48 h in differentiation medium
Experimental: (§2) The impacts of a tested compound on the expression and activation of proteins that are linked to cellular responses in the early phase of adipocyte differentiation were assessed using Western blot analysis. The list of proteins analyzed in this study included adipogenic regulators (i.e., PPARγ and C/EBPα) and the MAPK signaling pathways-mediated proteins (i.e., JNK, ERK, and p38). The expression or activation of each target protein was normalized with β-Actin as a reference cellular protein. The activation of JNK, ERK, and p38 was assessed using the phosphorylation ratio between those phosphorylated (i.e., p-ERK, p-JNK, and p-p38) and the sum of those phosphorylated and non-phosphorylated.
(§3) 3T3-L1 pre-adipocytes at 100% confluence were exposed for 48 h to a tested compound at non-cytotoxic concentrations prepared in the differentiation medium. Cells were then washed with PBS (pH 7.4) and used for protein extraction by incubation in an ice-cold radio-immunoprecipitation assay buffer (Thermo Scientific, Rockford, CA, USA) supplemented with the protease inhibitor cocktail (Roche Applied Science, Indianapolis, IN, USA) for 45 min. Derived cell lysates were centrifuged at 4 °C, 6440× g for 15 min, and the supernatant was collected. The BCA protein assay kit was conducted to quantify the total protein content in the supernatant. […]

C/EBPα = assay: Western blot, C/EBPα expression at early adipocyte differentiation; type: cell-based, mouse; settings: 10 µM, 48 h in differentiation medium
Experimental: as §2, §3

p38 = assay: Western blot, p38 phosphorylation ratio; type: cell-based, mouse; settings: 48 h, vs untreated vehicle control
Experimental: as §2, §3

JNK = assay: Western blot, JNK phosphorylation ratio; type: cell-based, mouse; settings: 48 h, vs untreated vehicle control
Experimental: as §2, §3

ERK = assay: Western blot, ERK phosphorylation ratio; type: cell-based, mouse; settings: 48 h, vs untreated vehicle control
Experimental: as §2, §3

3T3-L1 cells [4] = assay: Nuclear staining with Hoechst 33342 / propidium iodide (cell death); type: cell-based; settings: 20 µM, 48 h, Hoechst 33342/PI
Experimental: 3T3-L1 cell death after exposure to varying concentrations of the tested compounds was also determined by the nuclear staining technique. Hoechst 33342 (Sigma Aldrich, St. Louis, MO, USA) and propidium iodide (PI) (Sigma Aldrich, St. Louis, MO, USA) were used as staining dyes. After 48 h of treatment, the assay medium was removed from 3T3-L1 cells and replaced with PBS containing 2 µg mL^−1 of Hoechst 33342 and 1 µg mL^−1 of PI. Cells were stained for 30 min at 37 °C with a 5% CO2 stream and observed/photographed under a fluorescence microscope (Olympus IX51 with DP70, Tokyo, Japan). Bright cells with a disseminated nucleus under both blue and red filters were referred to as dead cells.

3T3L-1 cells = system: 3T3L-1 cells; parameters: method as in PMID 32571087; settings: cited from earlier work

COc1ccc(CCc2cc(OC)c3c(c2)O[C@@H](c2cc(OC)c(O)c(OC)c2)[C@H](CO)O3)cc1 [Compound 4, dendrocandin B]
viability at 48 h, 20 µM [1]: 61.3 ± 1.1%
cytotoxic effect (cell viability vs untreated vehicle control) (3T3-L1 pre-adipocytes): significant decrease in cell viability
pancreatic lipase activity inhibition (pancreatic lipase): did not hamper
effect on cellular lipid storage (percentage of Oil Red O-stained cells) (3T3-L1 cells [2]): absence of its bioactivity to suppress lipid accumulation
α-glucosidase activity inhibition (α-glucosidase): did not hamper

COc1ccc(CCc2cc(O)c(O)c(OC)c2)cc1 [Compound 3, 3,4-dihydroxy-5,4′-dimethoxybibenzyl]
non-cytotoxic concentrations (3T3-L1 pre-adipocytes): ≤ 10 µM
cytotoxic effect on HeLa cells [3]: did not show a cytotoxic effect
PPARγ expression relative to β-Actin (PPARγ): maximum suppression
C/EBPα expression relative to β-Actin (C/EBPα): maximum suppression
effect on cellular lipid storage (percentage of Oil Red O-stained cells) (3T3-L1 cells [2]): significantly decrease
IC50 (3T3-L1 cells [2]): 6.3 ± 0.1 µM
IC50 fold lower than oxyresveratrol (3T3-L1 cells [2]; lipid accumulation IC50 ratio to positive control): approximately 3 fold
p38 phosphorylation (p38; 2.5 µM): did not affect
p38 phosphorylation (p38; 10 µM): significantly suppressed
JNK phosphorylation (JNK; 2.5 µM): did not affect
JNK phosphorylation (JNK; 10 µM): significantly suppressed
ERK phosphorylation (ERK; 2.5 µM): did not affect
ERK phosphorylation (ERK; 10 µM): significantly suppressed
dead cells by nuclear staining (3T3-L1 cells [4]): some dead cells

COc1ccc(CCc2cc(OC)c(O)c(OC)c2)cc1 [Compound 1, amoenylin]
effect on cellular lipid storage (percentage of Oil Red O-stained cells) (3T3-L1 cells [2]): significantly decrease

COc1cc([C@H]2OC[C@H]3[C@@H]2CO[C@@H]3c2cc(OC)c(O)c(OC)c2)cc(OC)c1O [Compound 6, syringaresinol]
promotion of glucose uptake (3T3L-1 cells): no function to promote glucose uptake
non-cytotoxic concentrations (3T3-L1 pre-adipocytes): ≤ 10 µM
effect on cellular lipid storage (percentage of Oil Red O-stained cells) (3T3-L1 cells [2]): significantly decrease

Oc1cc(O)cc(/C=C/c2ccc(O)cc2O)c1 [oxyresveratrol, reference compound]
IC50 (3T3-L1 cells [2]): 20.2 ± 1.2 µM

COc1ccc(CCc2cc(OC)c(O)c3c2C(Cc2ccc(OC)cc2)c2cc(O)c(O)c(OC)c2O3)cc1 (stereo not shown) [Compound 5, dendrofalconerol A]
viability at 48 h, 20 µM [1]: 61.3 ± 1.1%
cytotoxic effect (cell viability vs untreated vehicle control) (3T3-L1 pre-adipocytes): significant decrease in cell viability
pancreatic lipase activity inhibition (pancreatic lipase): strong capability to inhibit
effect on cellular lipid storage (percentage of Oil Red O-stained cells) (3T3-L1 cells [2]): did not exhibit the inhibitory effect on lipid accumulation
α-glucosidase activity inhibition (α-glucosidase): strong capability to inhibit

COC(=O)CCc1ccc(O)cc1 [Compound 2, methyl 3-(4-hydroxyphenyl) propionate]
non-cytotoxic concentrations (3T3-L1 pre-adipocytes): ≤ 10 µM
effect on cellular lipid storage (percentage of Oil Red O-stained cells) (3T3-L1 cells [2]): significantly decrease
